Measurements from ChEMBL document CHEMBL1201862, “PubChem BioAssay data set” (2004).
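Exposure lasted 48 hours, with cells grown in 96-well plates and compounds tested at five concentrations. Abbreviation: GI50, concentration required for 50% inhibition of growth.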 Calls of active or inactive are those of the source. Rule as the data show it: active = GI50 up to about 1.1 µM and inactive = higher.

Tests used:
Test in all cases: growth of human tumour cells (NCI), 48 h
[1] = system: NCI-H522
[2] = system: U-251
[3] = system: MDA-MB-231
[4] = system: 786-0
[5] = system: NCI-H460
[6] = system: SK-MEL-2
[7] = system: SF-268
[8] = system: SR
[9] = system: SK-MEL-28
[10] = system: HOP-92
[11] = system: SF-295
[12] = system: OVCAR-3
[13] = system: HCT-15
[14] = system: HT-29
[15] = system: SNB-19
[16] = system: KM12
[17] = system: COLO 205
[18] = system: RPMI-8226
[19] = system: Hs-578T
[20] = system: K562

Row | SMILES | GI50 [1] | GI50 [2] | GI50 [3] | GI50 [4] | GI50 [5] | GI50 [6] | GI50 [7] | GI50 [8] | GI50 [9] | GI50 [10] | GI50 [11] | GI50 [12] | GI50 [13] | GI50 [14] | GI50 [15] | GI50 [16] | GI50 [17] | GI50 [18] | GI50 [19] | GI50 [20]
1 | CCOC(=O)C1(C(=O)OCC)C[C@]23OCCC(=O)[C@H]2[C@H]2C(=O)OC(C)(C)O[C@]23C1 | > 100 µM (inactive) | > 100 µM (inactive) | > 100 µM (inactive) | > 100 µM (inactive) | > 100 µM (inactive) | > 100 µM (inactive) | > 100 µM (inactive) | > 100 µM (inactive) | > 100 µM (inactive) | > 100 µM (inactive) | > 100 µM (inactive) | > 100 µM (inactive) | > 100 µM | > 100 µM (inactive) | > 100 µM (inactive) | > 100 µM (inactive) | > 100 µM (inactive) | > 100 µM (inactive) | > 100 µM (inactive) | –
2 | Oc1c(CN2CCCC2)ccc2cccnc12 | 27.6 µM (inactive) | 16.2 µM (inactive) | 51.3 µM (inactive) | 17.9 µM (inactive) | 20.3 µM (inactive) | > 47 µM (inactive) | 24 µM (inactive) | 12.2 µM (inactive) | 22.5 µM (inactive) | 26.4 µM (inactive) | 13 µM (inactive) | 23.9 µM (inactive) | 2.84 µM | 27.5 µM (inactive) | 18.3 µM (inactive) | 24.8 µM (inactive) | 25.9 µM (inactive) | 16.7 µM (inactive) | > 83.4 µM (inactive) | > 33.5 µM (inactive)
3 | O=C(Cn1nnc(-c2ccccc2)n1)N/N=C/c1cn(Cc2ccc(Cl)cc2Cl)c2ccccc12 | 43.1 µM (inactive) | > 100 µM (inactive) | > 100 µM (inactive) | 36.9 µM (inactive) | > 100 µM (inactive) | > 100 µM (inactive) | 31.8 µM (inactive) | 63.1 µM (inactive) | – | > 100 µM (inactive) | 63.2 µM (inactive) | > 100 µM (inactive) | > 100 µM | > 100 µM (inactive) | > 100 µM (inactive) | > 100 µM (inactive) | > 100 µM (inactive) | > 100 µM (inactive) | > 100 µM (inactive) | > 100 µM (inactive)
4 | COC12OC3(C4OC41)C(C(=O)O[C@H]3CO[Si](C)(C)C(C)(C)C)C2S(=O)(=O)c1ccccc1 (stereo partly drawn) | 17.1 µM (inactive) | > 4.65 µM (inactive) | > 4.65 µM (inactive) | 2.89 µM (inactive) | > 62.1 µM (inactive) | > 4.65 µM (inactive) | – | 2.63 µM (inactive) | 3.48 µM (inactive) | 3.27 µM (inactive) | > 25.5 µM (inactive) | > 100 µM (inactive) | 3.16 µM | – | – | – | 21.9 µM (inactive) | 1.67 µM (inactive) | 4.65 µM (inactive) | 1.6 µM (inactive)
5 | CCOc1cc(NC(C)=O)ccc1C(=O)NN1C(=O)C(Oc2ccccc2)C1c1ccccc1 (stereo not drawn) | > 100 µM (inactive) | – | > 100 µM (inactive) | > 100 µM (inactive) | 15.3 µM (inactive) | > 100 µM (inactive) | > 100 µM (inactive) | 4.15 µM (inactive) | > 100 µM (inactive) | > 100 µM (inactive) | 57.8 µM (inactive) | > 100 µM (inactive) | > 100 µM | > 100 µM (inactive) | – | > 100 µM (inactive) | 71.9 µM (inactive) | 35.9 µM (inactive) | > 100 µM (inactive) | 49.5 µM (inactive)
6 | COC(=O)c1ccc2c(c1)CC1(C2)Cc2cc3c(cc2C1)CCC3 | > 100 µM (inactive) | 49.3 µM (inactive) | > 100 µM (inactive) | > 100 µM (inactive) | > 100 µM (inactive) | 98.2 µM (inactive) | > 100 µM (inactive) | > 100 µM (inactive) | > 100 µM (inactive) | > 100 µM (inactive) | > 100 µM (inactive) | > 100 µM (inactive) | > 100 µM | > 100 µM (inactive) | > 100 µM (inactive) | – | – | > 100 µM (inactive) | > 100 µM (inactive) | > 100 µM (inactive)
7 | C[C@]12C[C@H](c3ccccc3)Nc3ccccc3N1C(c1ccccc1)=NO2 | > 100 µM (inactive) | 96.4 µM (inactive) | > 100 µM (inactive) | 60.1 µM (inactive) | 49.7 µM (inactive) | > 100 µM (inactive) | > 100 µM (inactive) | 3.39 µM (inactive) | – | 30.1 µM (inactive) | 22.5 µM (inactive) | 28.5 µM (inactive) | 67.9 µM | 55.2 µM (inactive) | > 100 µM (inactive) | 61 µM (inactive) | 78.7 µM (inactive) | 47.2 µM (inactive) | > 100 µM (inactive) | 33.8 µM (inactive)
8 | N#Cc1c(-c2cccc(Cl)c2)cc(-c2ccc(Cl)cc2)nc1N | 15.1 µM (inactive) | 16.6 µM (inactive) | 16.1 µM (inactive) | 17 µM (inactive) | 18.8 µM (inactive) | 18.1 µM (inactive) | 18.5 µM (inactive) | 15.3 µM (inactive) | – | 10.9 µM (inactive) | 17.2 µM (inactive) | 23.7 µM (inactive) | 17.1 µM | 24.3 µM (inactive) | 11.9 µM (inactive) | 25.2 µM (inactive) | 14.6 µM (inactive) | 18.1 µM (inactive) | 21.1 µM (inactive) | 34.4 µM (inactive)
